Data from ChEMBL document CHEMBL5356979, “Synthesis, antibiofilm activity and molecular docking of N-acylhomoserine lactones containing cinammic moieties” (Bioorg Med Chem Lett, 2024).
Activity calls are given as the source filed them. The rule behind the calls is not given here.

Tests used:
[1] = Inhibition of quorum sensing system in Chromobacterium violaceum assessed as inhibition of violacein secretion by measuring inhibition halo at 50 uM
[2] = system: Klebsiella pneumoniae; assay: Antibiofilm activity against Klebsiella pneumoniae assessed as inhibition of biofilm formation at 50 uM incubated for 24 hrs by crystal violet staining based analysis relative to control; assay type: functional
[3] = system: Staphylococcus aureus; assay: Antibiofilm activity against Staphylococcus aureus assessed as inhibition of biofilm formation at 50 uM incubated for 24 hrs by crystal violet staining based analysis relative to control; assay type: functional
[4] = Cytotoxicity against green monkey COS-7 cells assessed as inhibition of cell growth at 100 uM relative to control; assay type: toxicity, cell-based; settings: chlorocebus aethiops
[5] = system: Pseudomonas aeruginosa; assay: Antibacterial activity against Pseudomonas aeruginosa assessed as inhibition of bacterial growth at 50 uM incubated for 24 hrs by microdilution method; assay type: functional, organism-based
[6] = system: Pseudomonas aeruginosa; assay: Antibiofilm activity against Pseudomonas aeruginosa assessed as inhibition of biofilm formation at 50 uM incubated for 24 hrs by crystal violet staining based analysis relative to control; assay type: functional
[7] = Inhibition of quorum sensing system in Chromobacterium violaceum assessed as inhibition of violacein secretion by measuring inhibition halo at 100 uM
[8] = system: Staphylococcus aureus; assay: Antibacterial activity against Staphylococcus aureus assessed as inhibition of bacterial growth at 50 uM incubated for 24 hrs by microdilution method; assay type: functional, organism-based
[9] = system: Klebsiella pneumoniae; assay: Antibacterial activity against Klebsiella pneumoniae assessed as inhibition of bacterial growth at 50 uM incubated for 24 hrs by microdilution method; assay type: functional, organism-based
[10] = Aqueous solubility of compound; assay type: physicochemical; settings: buffer
[11] = system: Rhodopseudomonas palustris; assay: Antibiofilm activity against Rhodopseudomonas palustris assessed as inhibition of biofilm formation at 1 uM relative to control; assay type: functional

Structure (SMILES) | inhibition zone (IZ) [1] [mm] | inhibition at 50 µM [2] [%] | inhibition at 50 µM [3] [%] | inhibition at 100 µM [4] [%] | Activity [5] | inhibition at 50 µM [6] [%] | inhibition zone (IZ) [7] [mm] | Activity [8] | Activity [9] | solubility [10] | inhibition at 1 µM [11] [%]
O=C(/C=C/C=C/c1ccccc1)N[C@H]1CCOC1=O | 2.2 | 28.3 | 14 | 0 | inactive | 30.2 | 2.7 | inactive | inactive | – | –
O=C(/C=C/c1cccc(F)c1)N[C@H]1CCOC1=O | – | 0 | 0 | – | inactive | 0 | – | inactive | inactive | Insoluble | –
Cn1c(/C=C/C(=O)N[C@H]2CCOC2=O)cc2ccccc21 | – | 0 | 0.5 | – | inactive | 0 | – | inactive | inactive | Insoluble | –
COc1ccc(/C=C/C(=O)N[C@H]2CCOC2=O)cc1 | 0.6 | 12 | 8.49 | – | inactive | 35.9 | 0.3 | inactive | inactive | – | –
O=C(/C=C/c1ccc(-c2ccccc2)cc1)N[C@H]1CCOC1=O | – | 0 | 8.4 | – | inactive | 0 | – | inactive | inactive | Insoluble | –
O=C(/C=C/c1cccnc1)N[C@H]1CCOC1=O | – | 0 | 0 | – | inactive | 14.2 | – | inactive | inactive | – | –
O=C(/C=C/c1cccs1)N[C@H]1CCOC1=O | – | 12.6 | 15.3 | – | inactive | 19.6 | – | inactive | inactive | – | –
O=C1C=C(Br)/C(=C/Br)O1 | 1.3 | 8.4 | 10.1 | – | – | 40.2 | 5.1 | – | – | – | –
O=C(/C=C/c1ccco1)N[C@H]1CCOC1=O | – | 0 | 18.2 | – | inactive | 24.3 | – | inactive | inactive | – | –
Cn1cccc1/C=C/C(=O)N[C@H]1CCOC1=O | – | 0 | 0 | – | inactive | 0 | – | inactive | inactive | Insoluble | –
CC(C)=CCC/C(C)=C/C(=O)N[C@H]1CCOC1=O | – | 24.5 | 26.5 | – | inactive | 25.3 | – | inactive | inactive | – | –
CC(C)c1ccc(/C=C/C(=O)N[C@H]2CCOC2=O)cc1 | – | 17.9 | 16.1 | – | inactive | 23.7 | – | inactive | inactive | – | –
O=C(/C=C/c1ccc(C(F)(F)F)cc1)N[C@H]1CCOC1=O | – | 30.2 | 2.2 | – | inactive | 0 | – | inactive | inactive | – | –
O=C(/C=C/c1ccccc1)N[C@H]1CCOC1=O | 1.3 | 0 | 18 | – | inactive | 29.1 | 0.6 | inactive | inactive | – | –
O=C(/C=C/c1ccc(F)cc1)N[C@H]1CCOC1=O | – | 0 | 0 | – | inactive | 20.3 | – | inactive | inactive | – | –
COc1cc(/C=C/C(=O)N[C@H]2CCOC2=O)cc(OC)c1OC | 2.7 | 0 | 37.1 | 3.2 | inactive | 26.9 | 3.7 | inactive | inactive | – | –
O=C(/C=C/c1ccc2c(c1)OCO2)N[C@H]1CCOC1=O | – | 27.1 | 5 | – | inactive | 0 | – | inactive | inactive | Insoluble | –
Cc1ccc(/C=C/C(=O)N[C@H]2CCOC2=O)cc1 | 1.3 | 16.9 | 4.4 | – | inactive | 29.8 | 2 | inactive | inactive | – | –
O=C(/C=C/c1ccc(Cl)cc1)N[C@H]1CCOC1=O | – | 0 | 12 | – | inactive | 23.7 | – | inactive | inactive | – | 30
COc1cccc(/C=C/C(=O)N[C@H]2CCOC2=O)c1 | – | 22.3 | 27.3 | – | inactive | 0 | – | inactive | inactive | Insoluble | –
